{"source": "patent US10561716B2", "about": "“Prostate cancer vaccine” (Wisconsin Alumni Research Foundation, priority 2006, dated 2020)", "note": "Entries after “also recorded” stand apart in the source; their conditions may differ."}
{"tested_on": "IFNγ and TNFα", "experiment": "Intracellular cytokine staining of AR811-specific T-cell clone", "format": "cell-based, human", "conditions": "clone restimulated with peptide, gated on CD3+/CD8+ cells", "method": "A clonal T-cell line specific for the AR811 peptide was derived by limited dilution following multiple restimulations in vitro. This line was restimulated for 5 hours in vitro with T2 cells and media only (panel A), an irrelevant peptide (panel B), AR811 peptide (panel C), or PMA/Ionomycin (panel D). IFNγ and TNFα cytokine accumulation were assessed by intracellular flow cytometric analysis (Cytofix/cytoperm kit, BD Pharmingen). Cells were first stained for CD3 and CD8 expression and CD3+/CD8+ cells were analyzed for IFNγ and TNFα expression. Shown are the plots gated on CD3+/CD8+ cells.\nAfter T-cell cultures containing AR LBD peptide-specific T-cells were identified, peptide-specific T-cell clones were isolated using limited-dilution cloning. Briefly, cultured T-cells were diluted to 400 cells/mL, and were diluted at a 1:1 ratio down the rows of a 96-well plate. These T-cells were mixed with 2×10^5 autologous PBMCs, as well as an anti-CD3 antibody (Clone UCHT1, BD Biosciences, 120 ng/mL) and IL-2 (Fitzgerald Industries, 200 U/mL), and were incubated at 37° C./5% CO2 for 12-14 days. Cultures generated from a single cell were identified, and their peptide-specificity was analyzed using a mini-cytotoxicity assay (as above). […] After three additional days, expanded T-cell clones were analyzed for cytotoxicity against peptide-specific or non-specific T2-pulsed cells (as described above). […]"}
{"sequence": "LLLFSIIPV [AR811]", "IFNγ and TNFα secretion of peptide-specific T-cell clone (FIG. 7)": "secrete both IFNγ and TNFα in response to peptide stimulation; also recorded: secretes IFNγ and TNFα in response to peptide stimulation"}
{"tested_on": "peptide-loaded T2 cells", "experiment": "Cytotoxicity assay (LDH) of peptide-specific patient T-cell cultures against peptide-loaded T2 cells", "format": "cell-based, human", "conditions": "patient T-cell lines, three effector-to-target ratios", "method": "(§1) Human prostate cancer patients underwent leukapheresis, and PBMCs were isolated using a Ficoll-Paque gradient (Pharmacia, Kirkland, Quebec). Immature dendritic cells (iDCs) were generated by incubating flask-adherent PBMCs with 20 ng/mL granulocyte-macrophage colony stimulating factor and 10 ng/mL interleukin four (IL-4) for six days at 37° C./5% CO2 (cytokines from: Fitzgerald Industries, Concord, Mass.). These iDCs were then treated with 150 ng/mL IL-6, 10 ng/mL IL-1β, 10 ng/mL tumor necrosis factor alpha (TNF-α), and […] prostaglandin E2 (Fitzgerald Industries) to generate mature dendritic cells (mDCs). These mDCs were then pulsed with 20 μg/mL AR LBD-derived peptide, and after being irradiated were co-incubated with CD4+ and CD8+ T-cells negatively isolated from autologous PBMCs (Invitrogen, Carlsbad, Calif.). After incubating for 24 hours, these cultures were then treated with 10 U/mL IL-2 and 30 U/mL IL-7 (Fitzgerald Industries), and incubated for another 6 days. These cultured T-cells were re-stimulated weekly using peptide-pulsed antigen presenting cells (either mDCs or the TK6 lymphoma cell line).\n(§2) T-cell cultures that underwent at least two stimulations (or splenocyte cultures that had undergone one stimulation) were collected and incubated for four hours with target cells (either T2 cells pulsed for two hours with a specific or non-specific peptide, the LNCaP prostate cancer cell line, or media alone) at various effector-to-target ratios. After incubation, supernatants were collected and levels of lactate dehydrogenase were measured using the CytoTox 96 Non-Radioactive Assay (Promega). The relative percentage of peptide-specific lysis was quantitated using the following equation: […]\n(§3) To characterize CD8+ T-cell responses to the AR LBD, the amino acid sequence of the AR LBD was evaluated for potential HLA-A2-binding epitopes that fit the consensus peptide binding sequence of X-L/M-X-X-X-V-X-X-V/L (SEQ ID NO:8), using the algorithm of Parker and colleagues (Parker K C et al., 1994, J. Immunol. 152:163-175). […] These peptides were synthesized and then characterized for their affinity for HLA-A2 in vitro using T2 binding assays. […] Peptide-specific T-cell lines were then cultured from the peripheral blood of 11 HLA-A2^+ patients with prostate cancer, using each of these peptides, and then tested for their cytolytic activity against both peptide-pulsed HLA-A2-expressing target cells and the HLA-A2^+ LNCaP prostate cancer cell line. Specifically, naive T cells were isolated by magnetic negative selection (Dynal) from the peripheral blood mononuclear cells (PBMCs) of HLA-A2-expressing prostate cancer patients, and cultured in the presence of autologous cytokine-matured irradiated dendritic cells (mDC) that had been loaded with individual peptides. These cultures received interleukin 2 (IL-2) and IL-7 the day after the culture, and were re-stimulated weekly with peptide-pulsed mDCs. Beginning after two weeks of stimulation, the T-cell cultures were tested weekly for their cytolytic activity using peptide-loaded T2 cells as target cells. Peptide-specific T-cells could be cultured from the majority of patients to at least one of these peptides, and peptide-specific T-cell lines could be cultured from the majority (7/11) of HLA-A2-expressing patients against the AR811 peptide in particular (Table 2).\n(§4) Table 2. Compiled results of T cell culturing and cytotoxicity assays. Shown in this table are the results obtained from cytotoxicity assays of T cell cultures from eleven HLA-A2-expressing patients with prostate cancer. In the second column is the number of patients for which peptide-specific T cells could be identified following 2-4 in vitro stimulations."}
{"sequence": "LLLFSIIPV [AR811]", "Peptide-specific lysis of T2 cells by peptide-specific T-cells (FIG. 6)": "lyse T2 cells in a peptide-specific fashion"}
{"sequence": "QLTKLLDSV [AR859]", "Peptide-specific lysis of T2 cells by peptide-specific T-cells (FIG. 6)": "showed peptide-specific lysis"}
{"tested_on": "peptide-loaded T2 cells", "experiment": "Cytotoxicity assay (LDH) of peptide-specific patient T-cell cultures against peptide-loaded T2 cells", "format": "cell-based, human", "conditions": "patients of eleven HLA-A2-expressing prostate cancer patients with peptide-specific T cells after 2-4 in vitro stimulations", "method": "as §1, §2, §3, §4"}
{"sequence": "ALLSSLNEL [AR700]", "Peptide-specific lysis (Number of patients)": "1/11"}
{"sequence": "FLCMKALLL [AR805]", "Peptide-specific lysis (Number of patients)": "3/11"}
{"sequence": "FSIIPVDGL [AR814]", "Peptide-specific lysis (Number of patients)": "3/11"}
{"sequence": "KLLDSVQPI [AR862]", "Peptide-specific lysis (Number of patients)": "5/11"}
{"sequence": "LGERQLVHVV [AR708]", "Peptide-specific lysis (Number of patients)": "1/11"}
{"sequence": "LLLFSIIPV [AR811]", "Peptide-specific lysis (Number of patients)": "7/11"}
{"sequence": "QLTKLLDSV [AR859]", "Peptide-specific lysis (Number of patients)": "2/11"}
{"sequence": "RMLYFAPDLV [AR761]", "Peptide-specific lysis (Number of patients)": "6/11"}
{"sequence": "VLEAIEPGV [AR677]", "Peptide-specific lysis (Number of patients)": "2/11"}
{"sequence": "WMGLMVFAM [AR742]", "Peptide-specific lysis (Number of patients)": "2/11"}
{"tested_on": "T2 cells pulsed with the AR811 peptide", "experiment": "Immunization of HLA-A2/DR1 (HHD-II) mice with peptide, splenocyte CTL assay", "format": "in vivo", "conditions": "once 100 μg peptide in CFA, splenocytes after one week"}
{"sequence": "LLLFSIIPV [AR811]", "Peptide-specific CTL after immunization (FIG. 9)": "AR811 peptide-specific CTL could be identified after immunization; also recorded: develop peptide-specific CTL"}
{"tested_on": "HLA-A2+ LNCaP prostate cancer cell line", "experiment": "Cytotoxicity assay (LDH) of peptide-specific patient T-cell cultures against LNCaP", "format": "cell-based, human", "design": "key to Prostate cancer cell lysis: +: positive lysis; −: no lysis; +/−: inconclusive", "conditions": "patient T-cell lines, three effector-to-target ratios", "method": "as §1, §2, §3, §4"}
{"sequence": "LLLFSIIPV [AR811]", "Lysis of the LNCaP cell line by peptide-specific T-cells (FIG. 6)": "could lyse the LNCaP cell line"}
{"sequence": "QLTKLLDSV [AR859]", "Lysis of the LNCaP cell line by peptide-specific T-cells (FIG. 6)": "did not lyse the LNCaP cell line"}
{"tested_on": "HLA-A2+ LNCaP prostate cancer cell line", "experiment": "Cytotoxicity assay (LDH) of peptide-specific patient T-cell cultures against LNCaP", "format": "cell-based, human", "design": "key to Prostate cancer cell lysis: +: positive lysis; −: no lysis; +/−: inconclusive", "conditions": "peptide-specific T cells against HLA-A2+ LNCaP", "method": "as §1, §2, §3, §4"}
{"sequence": "ALLSSLNEL [AR700]", "Prostate cancer cell lysis": "−"}
{"sequence": "FLCMKALLL [AR805]", "Prostate cancer cell lysis": "+/−"}
{"sequence": "FSIIPVDGL [AR814]", "Prostate cancer cell lysis": "−"}
{"sequence": "KLLDSVQPI [AR862]", "Prostate cancer cell lysis": "−"}
{"sequence": "LGERQLVHVV [AR708]", "Prostate cancer cell lysis": "−"}
{"sequence": "LLLFSIIPV [AR811]", "Prostate cancer cell lysis": "+"}
{"sequence": "QLTKLLDSV [AR859]", "Prostate cancer cell lysis": "+/−"}
{"sequence": "RMLYFAPDLV [AR761]", "Prostate cancer cell lysis": "+/−"}
{"sequence": "VLEAIEPGV [AR677]", "Prostate cancer cell lysis": "−"}
{"sequence": "WMGLMVFAM [AR742]", "Prostate cancer cell lysis": "−"}
{"tested_on": "prostate cancer cell lines (LNCaP, MDA-Pca-2B, DU145)", "experiment": "Cytotoxicity of AR811 CD8+ T-cell clone against prostate cancer cell lines, with HLA-A2 blocking antibody", "format": "cell-based, human", "conditions": "HLA-A2-negative DU145", "method": "In addition, lysis was evaluated following pre-treatment of LNCaP with an HLA-A2 blocking monoclonal antibody (starburst). Shown is a cytotoxicity assay of an AR811 CD8+ cell clone. Cells were restimulated for seven days using peptide-pulsed antigen presenting cells, followed on day seven by a rest period of three days before they were analyzed for their cytotoxic activity.\nTo conduct a mini-cytotoxicity assay of limited-dilution clones, 50 μl (¼) of the cultured clones were incubated for four hours with either T2 cells pulsed with the specific peptide, a non-specific peptide, or media alone. For the subsequent characterization of CTL clone cytotoxicity against prostate cancer cells, cryopreserved CTL clones were thawed, washed 3 times, and restimulated by incubating the clones with peptide-pulsed irradiated TK6 cells for 7 days. These clones were then resuspended in 10 U/mL IL-2, and allowed to incubate for three days at 37° C./5% CO2. They were then analyzed for cytotoxicity (as described above) against four prostate cancer cell lines: LNCaP, DU145, LAPC4, and MDAPCa-2b cell lines. To characterize HLA-A2-restriction of observed cytotoxicity, a HLA-A2 antibody was added to the reaction (Clone BB7.2, BD Biosciences, 1 μg/mL)."}
{"sequence": "LLLFSIIPV [AR811]", "Lysis of prostate cancer cells by AR811 T-cell clone, HLA-A2 restriction (FIG. 8)": "lysed prostate cancer cells in an MHC class I-restricted fashion; also recorded: naturally processed HLA-A2-restricted T-cell epitope"}
